Measurements reported in patent US4076802A (priority 1977, dated 1978).
Values after ≈ are worked out from the molar mass of the structure shown. Where two headings read alike, the source gives them in different places.

What was measured:
bean beetle = assay: Larvicidal activity; type: in vivo
crown rust of oats = assay: Fungicidal activity; type: in vivo; conditions: spraying as 25% wettable powder
[1] = test system: Penicillium digitatum 0184 (mold); assay: Antifungal MIC, Table 5; type: cell-based; conditions: Culture ATCC 26821
housefly = assay: Larvicidal activity; type: in vivo
Solubility in solvents = type: physicochemical
[2] = test system: Candida albicans 155 (yeast); assay: Antifungal MIC, Table 5; type: cell-based; conditions: Culture NRRL 477
[3] = test system: Piricularia oryzae (rice blast disease); conditions: in vivo
[4] = test system: Botrytis cinerea (grey mold diseases); assay: Activity against plant disease fungi on several crops; type: in vivo
[5] = test system: Uromyces species (cereal rust disease); assay: as above; type: in vivo
mice = assay: 24 hour acute toxicity in mice; type: in vivo
mosquito larvae = assay: Larvicidal activity; type: in vivo
[6] = test system: Paecilomyces varioti M16 (fungus); assay: Antifungal MIC, Table 5; type: cell-based; conditions: Culture ATCC 26820
[7] = test system: Saccharomyces cerevisiae 90 (yeast); assay: Antifungal MIC, Table 5; type: cell-based; conditions: Culture ATCC 4226
wood decay organisms = assay: Fungicidal activity; type: in vivo; conditions: spraying as 25% wettable powder
[8] = test system: Puccinia species (cereal rust disease); assay: Activity against plant disease fungi on several crops; type: in vivo
KB cells = assay: KB monolayer cytotoxicity test; type: cell-based, human
Colorado potato beetle = assay: Larvicidal activity; type: in vivo
[9] = test system: Rhizoctonia solani (damping off diseases); assay: Activity against plant disease fungi on several crops; type: in vivo
army worm = assay: Larvicidal activity; type: in vivo

With `C/C=C/[C@H]1O[C@@](O)([C@@H](C)[C@H](O)[C@H](C)[C@H]2OC(=O)/C(OC)=C/C(C)=C/[C@@H](C)[C@@H](O)[C@@H](CC)[C@@H](O)[C@H](C)C/C(C)=C/C=C/[C@@H]2OC)C[C@@H](O[C@H]2C[C@@H](O)[C@H](OC(N)=O)[C@@H](C)O2)[C@@H]1C` the larvicidal activity (bean beetle) was “excellent activity”, the larvicidal activity (bean beetle; spraying on leaves) was “exhibits larvicidal activity” and the fungicidal activity (crown rust of oats) was “exhibits fungicidal activity”. The MIC value [1] was 3.33 µg/mL (≈ 3.84 µM), the larvicidal activity (housefly) was “excellent activity” and the solubility (Solubility in solvents; in 95% ethanol) was 47.5 mg/mL (≈ 54800 µM). For the same compound, the solubility (Solubility in solvents; in acetone) was > 100 mg/mL, the solubility (Solubility in solvents; in benzyl alcohol) was > 100 mg/mL and the solubility (Solubility in solvents; in dimethylformamide) was > 100 mg/mL. For the same compound, the solubility (Solubility in solvents; in glycerine) was < 1 mg/mL, the solubility (Solubility in solvents; in methanol) was > 100 mg/mL and the solubility (Solubility in solvents; in polyethylene glycol 400) was < 1 mg/mL. For the same compound, the solubility (Solubility in solvents; in propylene glycol) was < 1 mg/mL, the solubility (Solubility in solvents; in tetrahydrofuran) was > 100 mg/mL and the solubility (Solubility in solvents; in water) was < 1 mg/mL. The MIC value [2] was 1.11 µg/mL (≈ 1.28 µM), the “activity against Piricularia oryzae” value [3] was “active” and the fungicidal activity [3] was “exhibits fungicidal activity”. The fungicidal activity ([4]; grey mold, spraying as 25% wettable powder) was “exhibits fungicidal activity”, the “activity against Botrytis cinerea” value ([4]; on several crops) was “active” and the “activity against Uromyces species” value [5] was “active”. The “24 hour acute toxicity (LD50)” value (mice; i.p.) was 2.45 mg/kg, the “24 hour acute toxicity (LD50)” value (mice; p.o.) was 21 mg/kg and the larvicidal activity (mosquito larvae; mosquito larvae) was “excellent activity”. For the same compound, the larvicidal activity (mosquito larvae; mosquito, spraying) was “exhibits larvicidal activity”, the MIC value [6] was 3.33 µg/mL (≈ 3.84 µM) and the MIC value [7] was 3.33 µg/mL (≈ 3.84 µM). For the same compound, the fungicidal activity (wood decay organisms) was “exhibits fungicidal activity”, the “activity against Puccinia species” value [8] was “active” and the ID50 (KB cells) was 0.0045 µg/mL (≈ 0.0052 µM). For the same compound, the larvicidal activity (Colorado potato beetle) was “excellent activity”, the larvicidal activity (Colorado potato beetle; spraying on leaves) was “exhibits larvicidal activity” and the “activity against Rhizoctonia solani” value [9] was “active”. The larvicidal activity (army worm) was “excellent activity”.
